The target of one experiment is T1, microsomal h-COX2 (Homo sapiens, UniProt P35354).
T1 construct: made in house; host or cells: baculovirus infected SF9 cells (microsomal preparation)
T1 sequence (P35354 18-604): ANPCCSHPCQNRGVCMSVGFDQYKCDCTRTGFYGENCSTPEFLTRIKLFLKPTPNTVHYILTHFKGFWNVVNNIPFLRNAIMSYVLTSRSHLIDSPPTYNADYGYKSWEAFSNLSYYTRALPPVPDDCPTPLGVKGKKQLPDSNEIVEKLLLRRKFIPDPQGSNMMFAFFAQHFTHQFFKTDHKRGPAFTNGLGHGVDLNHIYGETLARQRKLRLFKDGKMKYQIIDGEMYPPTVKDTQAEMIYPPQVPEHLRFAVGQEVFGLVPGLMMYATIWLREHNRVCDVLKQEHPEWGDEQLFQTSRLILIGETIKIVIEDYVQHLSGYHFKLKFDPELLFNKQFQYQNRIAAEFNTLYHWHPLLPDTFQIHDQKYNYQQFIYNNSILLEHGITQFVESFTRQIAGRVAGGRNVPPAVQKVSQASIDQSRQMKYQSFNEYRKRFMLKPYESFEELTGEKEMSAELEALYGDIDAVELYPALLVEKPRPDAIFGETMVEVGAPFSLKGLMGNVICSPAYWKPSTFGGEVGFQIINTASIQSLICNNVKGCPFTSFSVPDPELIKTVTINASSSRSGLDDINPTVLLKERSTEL
In words: Microsomal assay, inhibition of h-COX2. Type of experiment: biochemical. The note with it: microsomal preparation from baculovirus infected SF9 cells; PGE2 by EIA; read-out: COX-2: IC50. The method, then:
(§1) Inhibitory activity against microsomal h-COX2 was assessed against a microsomal preparation from baculovirus infected SF9 cells. An aliquot of microsomal preparation was thawed slowly on ice and a 1/40,000 dilution prepared from it into the assay buffer (sterile water, degassed with argon containing 100 mM HEPES (pH 7.4), 10 mM EDTA (pH7.4), 1 mM phenol, 1 mM reduced glutathione, 20 mg/ml gelatin and 0.001 mM Hematin). Once diluted the enzyme solution was then sonicated for 5 seconds (Branson sonicator, setting 4, 1 cm tip) to ensure a homogeneous suspension. 155 μl enzyme solution was then added to each well of a 96-well microtitre plate containing either […] test compound (40×required test concentration) or 5 μl DMSO for controls. Plates were then mixed and incubated at room temperature for 1 hour. Following the incubation period, 40 μl of 0.5 μM arachidonic acid was added to each well to give a final concentration of 0.1 μM. Plates were then mixed and incubated for exactly 10 minutes (room temperature) prior to addition of 25 μl 1M HCl (hydrochloric acid) to each well to stop the reaction. 25 μl of 1M NaOH (sodium hydroxide) was then added to each well to neutralise the solution prior to determination of PGE2 levels by enzyme immunoassay (EIA).
(§2) The following IC50 value for inhibition of COX-2 and COX-1 were obtained from the microsomal assay for compounds of the invention: […]

The next experiment concerns the target COX-1 (Homo sapiens, UniProt P23219). In words: Microsomal assay, inhibition of COX-1. It counts as biochemical. The procedure: as §1, §2

Chain of COX-1 (P23219 24-599): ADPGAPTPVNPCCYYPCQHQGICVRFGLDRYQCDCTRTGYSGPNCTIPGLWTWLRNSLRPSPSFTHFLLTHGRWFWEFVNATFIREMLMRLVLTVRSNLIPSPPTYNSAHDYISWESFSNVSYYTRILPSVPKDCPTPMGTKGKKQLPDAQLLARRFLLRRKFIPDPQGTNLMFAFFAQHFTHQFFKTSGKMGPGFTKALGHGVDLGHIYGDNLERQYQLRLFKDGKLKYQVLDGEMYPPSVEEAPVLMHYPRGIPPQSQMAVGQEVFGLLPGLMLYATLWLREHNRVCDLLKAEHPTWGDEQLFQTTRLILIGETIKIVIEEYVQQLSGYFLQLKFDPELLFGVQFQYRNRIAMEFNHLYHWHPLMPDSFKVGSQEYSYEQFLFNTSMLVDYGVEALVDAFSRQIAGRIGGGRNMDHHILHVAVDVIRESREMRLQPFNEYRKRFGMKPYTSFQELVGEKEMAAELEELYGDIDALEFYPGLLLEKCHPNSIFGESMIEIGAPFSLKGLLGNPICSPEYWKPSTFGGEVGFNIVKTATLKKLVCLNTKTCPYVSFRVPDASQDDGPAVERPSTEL

A word on the IC50: it is the point on the concentration scale where inhibition reaches its midpoint. `CS(=O)(=O)c1ccc(-c2cc(CF)nc(NCc3ccccc3)n2)cc1` [Example 1, 4-[4-(Methylsulfonyl)phenyl]-N-(Phenylmethyl)-6(fluoromethyl)pyrimidin-2-amine]: the 50% inhibitory concentration (IC50) at microsomal h-COX2 was determined as 0.022 µM; on COX-1, 17.7 µM.

Values taken from patent publication US7056928B2, “Pyrimidine derivatives as selective inhibitors of COX-2” (Glaxo Group Limited, priority 2001, dated 2006).
